Data as given in patent publication US12606540B2, “Triazolone compound” (MEDSHINE DISCOVERY INC., priority 2020, dated 2026).

How the values were obtained:
[1] = system: human peripheral blood mononuclear cells; test: Proliferation inhibition of peripheral blood mononuclear cells (flow cytometry); format: cell-based; conditions: PBMC, PHA-M 5 μg/mL stimulation, 48 hours
Description: Flow cytometry was used to detect cell proliferation of human peripheral blood mononuclear cells.
• Cell complete medium: 445 mL of RPMI1640 cell culture+50 mL of fetal bovine serum+5 mL of double antibody • Buffer 1: 9.9 mL of phosphate buffer+0.1 mL of 10% bovine serum protein • Buffer 2: 10 mL of fetal bovine serum+490 mL of phosphate buffer 3.2 Cell Thawing • 3.2.1 20 mL of cell complete medium was added to a 50 mL of centrifuge tube and pre-heated in a 37° C. water bath for 5 minutes; • 3.2.2 the cell cryotubes were removed from the liquid nitrogen storage tank and placed on dry ice for 5-10 minutes to allow the liquid nitrogen to evaporate fully; • 3.2.3 the cell cryotubes were clamped with forceps and placed in the water bath, and shaken gently to thaw the frozen cells quickly; • 3.2.4 the thawed cells were transferred to the pre-heated cell complete medium with a pipette, centrifuged at 350 g for 5 min, then the supernatant was discarded, and the cells was resuspended by adding 10 mL of phosphate buffer; • 3.2.5 counting by cell counter, and cell viability and cell count were recorded. 3.3 Cell Labeling • 3.3.1 Cell proliferation labeling solution (CellTrace™ Violet, 1:1000 dilution) was prepared • 3.3.2 the above mixture was centrifuged at 350 g for 5 minutes, and the supernatant was discarded, then the cells (20×10^6/mL) were resuspended by adding Buffer 1, and the resuspended cells were gently blown by pipette, and an equal volume of cell proliferation labeling solution (prepared in 3.3.1) was added, and gently blown well by pipette; • 3.3.3 incubating in a 5% CO2, 37° C. cell incubator for 18 minutes; • 3.3.4 the 5-fold volume of cell complete medium was added and leaved at room temperature for 5 minutes to terminate the staining reaction; • 3.3.5 the above mixture was centrifuged at 350 g for 5 minutes, and the supernatant was discarded, then the cells were resuspended by adding 10 mL of cell complete medium, counted by cell counter, and cell viability and cell count were recorded; • 3.3.6 the above mixture was centrifuged at 350 g for 5 minutes, and the supernatant was discarded, then the corresponding volume of cell complete medium was added according to the cell counting results, and the density of the resuspended cells was 2×10^6/mL and was to be used. 3.4 Cell Proliferation Stimulation • 3.4.1 50 μL/well prepared cell suspension (1×10^5 cells/well), 50 μL of 4×PHA-M (the final concentration is 5 μg/mL), 50 μL of 4×test compound, 50 μL of cell complete medium were added to the wells of 96-well cell culture plate, and the corresponding control group was set up; (total volume of the reaction system is 200 μL) • 3.4.2 the cell culture plate was placed and incubated in a 5% CO2, 37° C. cell incubator for 48 hours. 3.5 Cell Proliferation Detection • 3.5.1 the above mixture was centrifuged at 350 g for 5 minutes and the supernatant was transferred to a new cell culture plate and stored at −80° C.; • 3.5.2 200 μL of Buffer 2 was add to the wells of the culture plate, and the above mixture was centrifuged at 350 g and the supernatant was discarded; • 3.5.3 cell dead or living staining solution (7-AAD, 1:100 dilution) was prepared with Buffer 2; • 3.5.4 100 μL/well of dead or living staining solution was added, and gently blown and mixed well by pipette, and stained at room temperature for 10 min; • 3.5.5 cell proliferation was detected by flow cytometry analyzer and analyzed by Flowjo software.

CDK9/cyclin T1(h) = biological target: T1, CDK9/cyclin T1(h) (Homo sapiens, UniProt P50750); test: Eurofins KinaseProfiler kinase selectivity; format: biochemical; conditions: compound at 1 μM; ATP 45 μM; read-out: Residual enzyme activity
T1 construct: purchased Eurofins (KinaseProfiler platform)
Description: (§1) This experiment aims to study the activity and selectivity of the compounds towards kinases selected from the Eurofins KinaseProfiler™ platform. The compounds against each selected kinase were tested using the KinaseProfiler™ experimental procedure of Eurofins standard, which follows the relevant standard operating procedures. Protein kinases (except ATM(h) and DNA-PK(h)) were tested by […], while lipid kinases, ATM(h), ATR/ATRIP(h) and DNA-PK(h) were tested by HRTF®.
(§2) Compound powders were prepared into 10 mM mother liquor through 100% DMSO solution and then diluted to 50× liquid.
(§3) An appropriate amount of 50× storage solution of the test compound was taken into the test wells, and then the kinase and substrate were added and mixed well. A certain concentration of ATP was added to start the reaction.
(§4) Data were processed using custom in-house analysis software.
(§5) The kinase off-target study in vitro of compound 5 of the present disclosure was carried out to evaluate the inhibitory activity against 15 common kinases at a concentration of 1 μM of the drug, and the results are as shown in Table 6.

CDK1/cyclinB(h) = biological target: T2, CDK1/cyclinB(h) (Homo sapiens, UniProt P06493); test: Eurofins KinaseProfiler kinase selectivity; format: biochemical; conditions: compound at 1 μM; ATP 45 μM; read-out: Residual enzyme activity
T2 construct: purchased Eurofins (KinaseProfiler platform)
Description: as §1, §2, §3, §4, §5

Fyn(h) = biological target: T3, Fyn(h) (Homo sapiens, UniProt P06241); test: Eurofins KinaseProfiler kinase selectivity; format: biochemical; conditions: compound at 1 μM; ATP 70 μM; read-out: Residual enzyme activity
T3 construct: purchased Eurofins (KinaseProfiler platform)
Description: as §1, §2, §3, §4, §5

CDK2/cyclinA(h) = biological target: T4, CDK2/cyclinA(h) (Homo sapiens, UniProt P24941); test: Eurofins KinaseProfiler kinase selectivity; format: biochemical; conditions: compound at 1 μM; ATP 45 μM; read-out: Residual enzyme activity
T4 construct: purchased Eurofins (KinaseProfiler platform)
Description: as §1, §2, §3, §4, §5

ALK(h) = biological target: T5, ALK(h) (Homo sapiens, UniProt Q9UM73); test: Eurofins KinaseProfiler kinase selectivity; format: biochemical; conditions: compound at 1 μM; ATP 200 μM; read-out: Residual enzyme activity
T5 construct: purchased Eurofins (KinaseProfiler platform)
Description: as §1, §2, §3, §4, §5

JAK2(h) = biological target: T6, JAK2(h) (Homo sapiens, UniProt O60674); test: Eurofins KinaseProfiler kinase selectivity; format: biochemical; conditions: compound at 1 μM; ATP 45 μM; read-out: Residual enzyme activity
T6 construct: purchased Eurofins (KinaseProfiler platform)
Description: as §1, §2, §3, §4, §5

GSK3β(h) = biological target: T7, GSK3β(h) (Homo sapiens, UniProt P49841); test: Eurofins KinaseProfiler kinase selectivity; format: biochemical; conditions: compound at 1 μM; ATP 15 μM; read-out: Residual enzyme activity
T7 construct: purchased Eurofins (KinaseProfiler platform)
Description: as §1, §2, §3, §4, §5

LOK(h) = biological target: T8, LOK(h) (Homo sapiens, UniProt O94804); test: Eurofins KinaseProfiler kinase selectivity; format: biochemical; conditions: compound at 1 μM; ATP 120 μM; read-out: Residual enzyme activity
T8 construct: purchased Eurofins (KinaseProfiler platform)
Description: as §1, §2, §3, §4, §5

Flt3(h) = biological target: T9, Flt3(h) (Homo sapiens, UniProt P36888); test: Eurofins KinaseProfiler kinase selectivity; format: biochemical; conditions: compound at 1 μM; ATP 200 μM; read-out: Residual enzyme activity
T9 construct: purchased Eurofins (KinaseProfiler platform)
Description: as §1, §2, §3, §4, §5

Rsk1(h) = biological target: T10, Rsk1(h) (Homo sapiens, UniProt Q15418); test: Eurofins KinaseProfiler kinase selectivity; format: biochemical; conditions: compound at 1 μM; ATP 45 μM; read-out: Residual enzyme activity
T10 construct: purchased Eurofins (KinaseProfiler platform)
Description: as §1, §2, §3, §4, §5

KDR(h) = biological target: T11, KDR(h) (Homo sapiens, UniProt P35968); test: Eurofins KinaseProfiler kinase selectivity; format: biochemical; conditions: compound at 1 μM; ATP 90 μM; read-out: Residual enzyme activity
T11 construct: purchased Eurofins (KinaseProfiler platform)
Description: as §1, §2, §3, §4, §5

Abl(h) = biological target: T12, Abl(h) (Homo sapiens, UniProt P00519); test: Eurofins KinaseProfiler kinase selectivity; format: biochemical; conditions: compound at 1 μM; ATP 45 μM; read-out: Residual enzyme activity
T12 construct: purchased Eurofins (KinaseProfiler platform)
Description: as §1, §2, §3, §4, §5

TNIK(h) = biological target: T13, TNIK(h) (Homo sapiens, UniProt Q9UKE5); test: Eurofins KinaseProfiler kinase selectivity; format: biochemical; conditions: compound at 1 μM; ATP 70 μM; read-out: Residual enzyme activity
T13 construct: purchased Eurofins (KinaseProfiler platform)
Description: as §1, §2, §3, §4, §5

MLK1(h) = biological target: T14, MLK1(h) (Homo sapiens, UniProt P80192); test: Eurofins KinaseProfiler kinase selectivity; format: biochemical; conditions: compound at 1 μM; ATP 45 μM; read-out: Residual enzyme activity
T14 construct: purchased Eurofins (KinaseProfiler platform)
Description: as §1, §2, §3, §4, §5

MST1(h) = biological target: T15, MST1(h) (Homo sapiens, UniProt Q13043); test: Eurofins KinaseProfiler kinase selectivity; format: biochemical; conditions: compound at 1 μM; ATP 90 μM; read-out: Residual enzyme activity
T15 construct: purchased Eurofins (KinaseProfiler platform)
Description: as §1, §2, §3, §4, §5

T10 sequence (Q15418 whole entry): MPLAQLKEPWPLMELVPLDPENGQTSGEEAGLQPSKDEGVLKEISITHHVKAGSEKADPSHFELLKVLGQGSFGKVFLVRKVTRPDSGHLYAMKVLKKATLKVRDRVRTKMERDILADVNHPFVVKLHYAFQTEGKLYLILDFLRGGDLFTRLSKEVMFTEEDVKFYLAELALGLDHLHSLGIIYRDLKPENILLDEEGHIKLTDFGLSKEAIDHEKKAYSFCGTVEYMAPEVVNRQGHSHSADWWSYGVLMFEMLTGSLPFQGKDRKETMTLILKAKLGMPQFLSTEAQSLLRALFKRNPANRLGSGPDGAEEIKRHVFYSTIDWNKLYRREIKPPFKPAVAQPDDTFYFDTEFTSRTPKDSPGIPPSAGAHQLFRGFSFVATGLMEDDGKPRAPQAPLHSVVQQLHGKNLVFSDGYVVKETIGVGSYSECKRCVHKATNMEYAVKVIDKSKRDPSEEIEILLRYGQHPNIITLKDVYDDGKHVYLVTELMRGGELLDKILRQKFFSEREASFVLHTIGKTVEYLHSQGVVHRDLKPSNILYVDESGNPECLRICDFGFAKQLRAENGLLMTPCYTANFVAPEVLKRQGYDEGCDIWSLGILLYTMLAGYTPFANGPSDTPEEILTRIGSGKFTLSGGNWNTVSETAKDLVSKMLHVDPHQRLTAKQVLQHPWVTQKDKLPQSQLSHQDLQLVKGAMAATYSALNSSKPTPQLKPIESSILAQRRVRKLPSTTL
T12 sequence (P00519 whole entry): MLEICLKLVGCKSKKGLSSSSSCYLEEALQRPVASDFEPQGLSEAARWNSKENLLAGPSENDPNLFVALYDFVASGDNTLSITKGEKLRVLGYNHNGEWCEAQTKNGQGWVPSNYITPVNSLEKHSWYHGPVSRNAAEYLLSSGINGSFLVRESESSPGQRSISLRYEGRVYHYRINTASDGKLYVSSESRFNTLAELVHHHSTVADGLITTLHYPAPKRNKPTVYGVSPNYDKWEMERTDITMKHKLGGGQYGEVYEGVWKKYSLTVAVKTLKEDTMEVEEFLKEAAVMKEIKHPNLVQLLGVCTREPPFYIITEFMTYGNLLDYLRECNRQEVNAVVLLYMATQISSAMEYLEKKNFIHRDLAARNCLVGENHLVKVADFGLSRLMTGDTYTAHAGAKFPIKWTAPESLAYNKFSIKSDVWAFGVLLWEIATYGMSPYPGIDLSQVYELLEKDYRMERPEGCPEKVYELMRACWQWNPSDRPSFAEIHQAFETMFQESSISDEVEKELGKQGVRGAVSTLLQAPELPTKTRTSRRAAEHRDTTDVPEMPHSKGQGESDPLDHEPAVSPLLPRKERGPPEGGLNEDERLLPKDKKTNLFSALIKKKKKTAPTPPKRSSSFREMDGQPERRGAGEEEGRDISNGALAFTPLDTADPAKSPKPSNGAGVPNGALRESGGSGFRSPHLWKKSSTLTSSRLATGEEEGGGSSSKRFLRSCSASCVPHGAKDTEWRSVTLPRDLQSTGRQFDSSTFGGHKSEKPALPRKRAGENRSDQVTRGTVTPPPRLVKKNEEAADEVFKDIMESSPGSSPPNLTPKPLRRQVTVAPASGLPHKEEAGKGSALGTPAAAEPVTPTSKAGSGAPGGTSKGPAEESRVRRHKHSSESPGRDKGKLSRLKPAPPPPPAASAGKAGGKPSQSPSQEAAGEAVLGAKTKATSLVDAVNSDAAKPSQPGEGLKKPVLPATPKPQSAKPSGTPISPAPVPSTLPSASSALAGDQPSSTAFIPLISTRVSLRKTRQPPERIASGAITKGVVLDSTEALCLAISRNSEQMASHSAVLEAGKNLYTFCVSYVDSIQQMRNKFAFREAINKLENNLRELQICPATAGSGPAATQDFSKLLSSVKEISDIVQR
T7 sequence (P49841 whole entry): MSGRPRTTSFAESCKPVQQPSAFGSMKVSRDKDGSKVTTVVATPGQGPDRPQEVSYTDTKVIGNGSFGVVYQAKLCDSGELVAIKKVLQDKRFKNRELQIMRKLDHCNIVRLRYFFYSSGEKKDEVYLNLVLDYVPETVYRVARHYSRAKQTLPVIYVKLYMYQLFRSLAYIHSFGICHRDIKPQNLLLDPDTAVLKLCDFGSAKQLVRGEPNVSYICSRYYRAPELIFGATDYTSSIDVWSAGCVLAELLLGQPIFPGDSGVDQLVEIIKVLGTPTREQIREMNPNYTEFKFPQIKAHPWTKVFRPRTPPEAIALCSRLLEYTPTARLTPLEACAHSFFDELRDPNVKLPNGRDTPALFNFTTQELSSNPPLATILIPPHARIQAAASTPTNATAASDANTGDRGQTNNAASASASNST
T13 sequence (Q9UKE5 whole entry): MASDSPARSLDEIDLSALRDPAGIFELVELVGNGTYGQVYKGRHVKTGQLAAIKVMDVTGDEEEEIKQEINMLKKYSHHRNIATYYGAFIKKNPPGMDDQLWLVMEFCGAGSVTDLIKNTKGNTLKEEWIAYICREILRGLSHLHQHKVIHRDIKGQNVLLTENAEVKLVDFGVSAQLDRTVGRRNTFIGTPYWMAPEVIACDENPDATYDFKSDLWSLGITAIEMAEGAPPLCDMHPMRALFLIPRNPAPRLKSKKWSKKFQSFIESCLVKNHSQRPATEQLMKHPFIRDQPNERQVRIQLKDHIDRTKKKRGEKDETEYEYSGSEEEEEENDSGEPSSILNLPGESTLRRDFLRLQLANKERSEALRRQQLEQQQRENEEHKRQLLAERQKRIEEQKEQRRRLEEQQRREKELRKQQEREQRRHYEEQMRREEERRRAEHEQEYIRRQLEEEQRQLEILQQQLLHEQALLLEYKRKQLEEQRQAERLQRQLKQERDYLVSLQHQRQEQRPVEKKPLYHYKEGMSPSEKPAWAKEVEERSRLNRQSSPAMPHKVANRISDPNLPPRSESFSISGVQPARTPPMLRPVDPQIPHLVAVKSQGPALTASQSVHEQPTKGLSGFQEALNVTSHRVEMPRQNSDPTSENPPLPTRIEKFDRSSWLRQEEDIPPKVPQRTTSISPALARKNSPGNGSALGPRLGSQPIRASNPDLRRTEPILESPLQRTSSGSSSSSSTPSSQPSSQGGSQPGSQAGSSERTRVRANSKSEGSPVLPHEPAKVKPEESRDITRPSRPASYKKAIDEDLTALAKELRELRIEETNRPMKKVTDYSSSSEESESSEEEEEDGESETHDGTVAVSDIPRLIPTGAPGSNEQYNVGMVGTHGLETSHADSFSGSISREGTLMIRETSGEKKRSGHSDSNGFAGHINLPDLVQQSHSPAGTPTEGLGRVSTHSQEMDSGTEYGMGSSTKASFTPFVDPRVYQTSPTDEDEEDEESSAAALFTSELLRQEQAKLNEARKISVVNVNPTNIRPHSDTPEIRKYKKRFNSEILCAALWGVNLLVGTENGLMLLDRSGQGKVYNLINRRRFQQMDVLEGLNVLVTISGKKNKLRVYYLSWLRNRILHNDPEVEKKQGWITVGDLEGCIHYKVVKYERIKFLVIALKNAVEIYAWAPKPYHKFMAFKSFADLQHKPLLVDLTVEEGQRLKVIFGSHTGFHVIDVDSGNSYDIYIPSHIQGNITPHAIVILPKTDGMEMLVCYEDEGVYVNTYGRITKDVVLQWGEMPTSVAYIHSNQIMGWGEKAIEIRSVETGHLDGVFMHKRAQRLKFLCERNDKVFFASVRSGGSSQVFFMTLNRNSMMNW
T1 sequence (P50750 whole entry): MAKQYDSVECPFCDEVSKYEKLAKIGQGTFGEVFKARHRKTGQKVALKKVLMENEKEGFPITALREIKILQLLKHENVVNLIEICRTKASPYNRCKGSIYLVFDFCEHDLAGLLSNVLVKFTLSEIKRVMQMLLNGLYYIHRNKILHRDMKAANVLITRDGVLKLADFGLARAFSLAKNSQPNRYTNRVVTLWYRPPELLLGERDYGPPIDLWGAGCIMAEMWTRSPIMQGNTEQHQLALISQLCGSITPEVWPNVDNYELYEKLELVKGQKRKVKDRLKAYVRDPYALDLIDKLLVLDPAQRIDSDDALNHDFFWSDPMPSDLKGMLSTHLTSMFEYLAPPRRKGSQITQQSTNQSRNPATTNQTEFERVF
T1 sequence (O60563 whole entry partner): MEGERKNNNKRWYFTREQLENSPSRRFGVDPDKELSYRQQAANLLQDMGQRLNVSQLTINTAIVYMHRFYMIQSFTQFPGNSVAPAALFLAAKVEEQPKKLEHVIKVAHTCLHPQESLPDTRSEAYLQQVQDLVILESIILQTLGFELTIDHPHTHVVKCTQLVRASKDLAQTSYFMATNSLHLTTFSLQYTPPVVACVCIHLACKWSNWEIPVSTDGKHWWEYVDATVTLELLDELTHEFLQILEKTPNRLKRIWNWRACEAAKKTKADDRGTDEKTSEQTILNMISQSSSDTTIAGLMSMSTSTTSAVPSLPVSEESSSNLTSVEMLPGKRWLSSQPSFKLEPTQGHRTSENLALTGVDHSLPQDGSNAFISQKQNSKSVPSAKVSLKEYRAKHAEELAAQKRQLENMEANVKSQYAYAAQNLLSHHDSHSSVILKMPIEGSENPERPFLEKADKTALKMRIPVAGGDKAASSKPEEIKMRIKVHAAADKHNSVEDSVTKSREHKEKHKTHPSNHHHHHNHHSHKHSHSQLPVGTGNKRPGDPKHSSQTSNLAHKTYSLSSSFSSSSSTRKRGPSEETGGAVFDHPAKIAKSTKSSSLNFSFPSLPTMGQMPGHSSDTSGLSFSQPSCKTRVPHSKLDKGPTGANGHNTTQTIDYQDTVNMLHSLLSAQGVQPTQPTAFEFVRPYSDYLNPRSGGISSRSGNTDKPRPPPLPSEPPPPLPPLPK

In the case of `CCn1c(CO)nn(-c2cc(O[C@@H](C)C(F)(F)F)c(/C(F)=C/c3ncccc3Cl)cc2F)c1=O` [Compound 5], the IC50 [1] is reported as 0.8 nM, the remaining activity at 1 µM (CDK9/cyclin T1(h)) is reported as 95% and the remaining activity at 1 µM (CDK1/cyclinB(h)) is reported as 91%. The remaining activity at 1 µM (Fyn(h)) was 121%, the remaining activity at 1 µM (CDK2/cyclinA(h)) was 72% and the remaining activity at 1 µM (ALK(h)) was 94%. For the same compound, the remaining activity at 1 µM (JAK2(h)) was 81%, the remaining activity at 1 µM (GSK3β(h)) was 126% and the remaining activity at 1 µM (LOK(h)) was 108%. The remaining activity at 1 µM (Flt3(h)) was 84%, the remaining activity at 1 µM (Rsk1(h)) was 88% and the remaining activity at 1 µM (KDR(h)) was 90%. For the same compound, the remaining activity at 1 µM (Abl(h)) was 88%, the remaining activity at 1 µM (TNIK(h)) was 84% and the remaining activity at 1 µM (MLK1(h)) was 111%. For the same compound, the remaining activity at 1 µM (MST1(h)) was 96%.
